The record followed here is PMC2063833 (The Journal of Cell Biology, 2006).

This test deals with T1, Ssy1p (Saccharomyces cerevisiae, UniProt Q03770).
T1 sequence (Q03770 1-852): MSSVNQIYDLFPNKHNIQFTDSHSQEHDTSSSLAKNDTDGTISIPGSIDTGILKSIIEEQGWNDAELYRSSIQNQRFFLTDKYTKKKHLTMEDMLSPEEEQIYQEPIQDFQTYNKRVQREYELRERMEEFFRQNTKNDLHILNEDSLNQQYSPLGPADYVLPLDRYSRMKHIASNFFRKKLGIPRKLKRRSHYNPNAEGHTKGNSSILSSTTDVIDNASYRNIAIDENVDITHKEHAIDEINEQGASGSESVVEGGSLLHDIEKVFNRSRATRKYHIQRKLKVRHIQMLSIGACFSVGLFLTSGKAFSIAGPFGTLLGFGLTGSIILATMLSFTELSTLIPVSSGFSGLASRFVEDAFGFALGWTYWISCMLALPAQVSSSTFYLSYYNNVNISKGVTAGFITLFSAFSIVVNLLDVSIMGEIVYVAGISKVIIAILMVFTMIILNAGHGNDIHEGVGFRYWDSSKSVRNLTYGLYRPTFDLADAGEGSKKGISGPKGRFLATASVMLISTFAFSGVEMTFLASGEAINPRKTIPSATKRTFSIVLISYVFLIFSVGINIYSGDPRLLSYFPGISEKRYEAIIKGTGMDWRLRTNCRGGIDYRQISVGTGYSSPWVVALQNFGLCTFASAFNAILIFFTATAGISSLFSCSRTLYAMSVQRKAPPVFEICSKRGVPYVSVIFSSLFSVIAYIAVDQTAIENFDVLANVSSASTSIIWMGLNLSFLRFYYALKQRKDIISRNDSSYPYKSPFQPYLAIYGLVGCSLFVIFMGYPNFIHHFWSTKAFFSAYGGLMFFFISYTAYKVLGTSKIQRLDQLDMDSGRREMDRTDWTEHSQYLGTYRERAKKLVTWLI
The test is described as follows: Ssy1p signaling measured as Stp1p processing. The format is cell-based. Conditions: for EC50: EC50 for sensing of extracellular amino acid, grown in SD.

`CC(C)C[C@H](N)C(=O)O` [Leu, leucine]: the EC50 (usually the midpoint of the concentration-response curve) (experiment 1, strain M5447 (ura3 gap1Δ), Leuc 0.5 μmol/g DW, mean of triplicate) was 13 µM; the response (experiment 5, strain M5568 (ura3 gap1Δ bap2Δ tat1Δ bap3Δ agp1::URA3), Leuc 1 μmol/g DW) was half-maximal at 15 µM (EC50); the EC50 (experiment 9, strain M5446 (ura3 gap1Δ LEU4-fbr), Leuc 12 μmol/g DW) amounted to 30 µM.
Take `CC(C)CCO` [isoamyl alcohol]: the “Effect on EC50 of adding isoamyl alcohol” value (isoamyl alcohol at relevant concentrations, unpublished data) is recorded as “no significant effect”.
